pIC50: −log10 of the molar value.
What was measured:
ALK = target: T1, ALK (Homo sapiens, UniProt Q9UM73); assay: ALK Kinase Assay (ELISA/TRF, PLC-γ substrate); format: biochemical; settings: ALK kinase inhibition, 1 μM ATP; read-out: ALK Potency
T1 construct: host or cells: baculovirus expression system
How it was run: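 PLC-γ coat 10 μg/mL in TBS; ALK 30 ng/ml added to start; 37° C, 15 min; Eu-N1 PT66 antibody detection (TRF). IC50: % inhibition vs log10 [cpd], variable-slope sigmoidal fit.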

JAK2 = target: T2, JAK2 (Homo sapiens, UniProt O60674); assay: Recombinant Human JAK2 Kinase Assay (TRF); format: biochemical; settings: JAK2 kinase inhibition, 0.2 μM ATP; read-out: JAK2 Potency
T2 construct: host or cells: baculovirus expression system
T2 sequence (O60674 whole entry): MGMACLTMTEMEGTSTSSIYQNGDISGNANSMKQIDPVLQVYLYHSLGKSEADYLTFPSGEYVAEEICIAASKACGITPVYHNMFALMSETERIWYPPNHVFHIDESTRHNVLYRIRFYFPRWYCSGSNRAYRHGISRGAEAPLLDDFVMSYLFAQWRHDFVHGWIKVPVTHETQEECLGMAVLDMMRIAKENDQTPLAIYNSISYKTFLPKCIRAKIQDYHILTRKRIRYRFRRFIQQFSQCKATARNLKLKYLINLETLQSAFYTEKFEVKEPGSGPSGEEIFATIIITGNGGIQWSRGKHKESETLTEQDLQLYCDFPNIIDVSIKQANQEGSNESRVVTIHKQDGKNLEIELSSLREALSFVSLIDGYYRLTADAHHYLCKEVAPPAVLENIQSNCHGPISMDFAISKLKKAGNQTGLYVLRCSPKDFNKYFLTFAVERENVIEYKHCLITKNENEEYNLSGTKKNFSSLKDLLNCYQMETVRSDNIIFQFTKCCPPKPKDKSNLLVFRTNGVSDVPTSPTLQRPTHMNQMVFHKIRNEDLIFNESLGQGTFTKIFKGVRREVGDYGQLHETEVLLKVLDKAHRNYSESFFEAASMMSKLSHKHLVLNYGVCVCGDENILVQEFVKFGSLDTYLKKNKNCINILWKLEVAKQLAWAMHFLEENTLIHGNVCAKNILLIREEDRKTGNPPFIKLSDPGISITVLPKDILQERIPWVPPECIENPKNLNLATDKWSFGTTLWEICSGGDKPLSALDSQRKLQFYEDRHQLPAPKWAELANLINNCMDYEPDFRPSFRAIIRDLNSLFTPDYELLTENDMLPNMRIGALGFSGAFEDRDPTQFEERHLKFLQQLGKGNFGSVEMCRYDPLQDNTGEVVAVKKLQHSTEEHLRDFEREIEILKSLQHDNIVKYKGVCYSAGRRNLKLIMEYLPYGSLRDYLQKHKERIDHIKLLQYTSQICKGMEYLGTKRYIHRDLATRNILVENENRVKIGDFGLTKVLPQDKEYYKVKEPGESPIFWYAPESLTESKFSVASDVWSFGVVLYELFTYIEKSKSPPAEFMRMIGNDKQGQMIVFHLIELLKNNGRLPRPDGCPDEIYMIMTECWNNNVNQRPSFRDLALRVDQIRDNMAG
How it was run: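 Baculovirus-expressed JAK2 (15 ng/ml) phosphorylated a biotinylated 15-mer peptide captured on Neutravidin-coated plates, in 20 mM HEPES pH 7.2 with 0.2 μM ATP, 1 mM MnCl2, 0.1% BSA and 2.5% DMSO. Reaction ran 20 min at room temperature; phosphopeptide was detected by time-resolved fluorescence with Eu-N1-labelled PY100 antibody.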

T1 sequence (Q9UM73 19-1620): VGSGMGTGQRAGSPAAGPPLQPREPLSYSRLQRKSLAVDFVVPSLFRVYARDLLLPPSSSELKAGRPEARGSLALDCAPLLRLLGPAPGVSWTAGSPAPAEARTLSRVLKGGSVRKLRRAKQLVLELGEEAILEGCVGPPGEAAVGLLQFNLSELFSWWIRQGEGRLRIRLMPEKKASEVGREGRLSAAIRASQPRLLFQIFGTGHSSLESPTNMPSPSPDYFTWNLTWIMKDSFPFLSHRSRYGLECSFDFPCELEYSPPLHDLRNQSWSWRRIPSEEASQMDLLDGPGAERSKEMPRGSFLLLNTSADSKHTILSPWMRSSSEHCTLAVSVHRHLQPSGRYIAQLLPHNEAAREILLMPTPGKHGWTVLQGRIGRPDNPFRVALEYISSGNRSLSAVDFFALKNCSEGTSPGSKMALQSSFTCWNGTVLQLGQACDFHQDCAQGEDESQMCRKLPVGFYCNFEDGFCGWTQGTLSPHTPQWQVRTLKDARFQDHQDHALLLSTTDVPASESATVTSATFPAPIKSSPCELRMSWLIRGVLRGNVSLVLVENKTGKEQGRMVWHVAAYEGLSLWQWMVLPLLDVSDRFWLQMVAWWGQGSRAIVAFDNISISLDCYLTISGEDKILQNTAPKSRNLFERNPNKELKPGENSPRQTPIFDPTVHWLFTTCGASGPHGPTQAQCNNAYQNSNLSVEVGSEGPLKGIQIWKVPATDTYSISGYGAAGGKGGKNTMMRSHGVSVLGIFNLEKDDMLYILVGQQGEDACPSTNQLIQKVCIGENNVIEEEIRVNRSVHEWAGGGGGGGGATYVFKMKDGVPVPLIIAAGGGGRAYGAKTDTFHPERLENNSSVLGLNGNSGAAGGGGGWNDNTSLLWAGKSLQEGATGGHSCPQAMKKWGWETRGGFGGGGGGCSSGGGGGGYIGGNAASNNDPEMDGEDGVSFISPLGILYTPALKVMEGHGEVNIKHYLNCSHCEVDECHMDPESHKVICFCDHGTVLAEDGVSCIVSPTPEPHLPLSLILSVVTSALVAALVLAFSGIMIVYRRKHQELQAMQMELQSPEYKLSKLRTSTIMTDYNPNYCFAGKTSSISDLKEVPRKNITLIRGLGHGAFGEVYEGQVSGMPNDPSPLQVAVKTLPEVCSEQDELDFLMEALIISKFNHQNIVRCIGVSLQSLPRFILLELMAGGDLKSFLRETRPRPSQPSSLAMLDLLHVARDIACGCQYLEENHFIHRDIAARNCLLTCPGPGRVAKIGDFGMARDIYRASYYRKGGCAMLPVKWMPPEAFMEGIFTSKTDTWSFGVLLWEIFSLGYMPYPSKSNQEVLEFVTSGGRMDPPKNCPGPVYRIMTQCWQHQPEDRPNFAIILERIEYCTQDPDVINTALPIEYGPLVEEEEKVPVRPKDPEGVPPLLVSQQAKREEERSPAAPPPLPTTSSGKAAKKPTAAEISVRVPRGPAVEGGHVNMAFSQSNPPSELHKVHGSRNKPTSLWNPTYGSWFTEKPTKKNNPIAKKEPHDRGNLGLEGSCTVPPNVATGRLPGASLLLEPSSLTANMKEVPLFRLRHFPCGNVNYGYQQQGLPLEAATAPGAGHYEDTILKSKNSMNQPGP

| SMILES | pIC50 (ALK) | pIC50 (JAK2) |
| --- | --- | --- |
| COc1cc(C2CCN(CC(N)=O)CC2)ccc1Nc1ncc2ccc(-c3cc(F)ccc3N(C)S(C)(=O)=O)n2n1 [Example 1282, 2-[4-(4-{7-[5-Fluoro-2-(methanesulfonyl-methyl-amino)-phenyl]-pyrrolo[2,1-f][1,2,4]triazin-2-ylamino}-3-methoxy-phenyl)-piperidin-1-yl]-acetamide] | > 7.00 | 5.00 to 6.00 |
| COc1ccc(N(C)S(C)(=O)=O)c(-c2ccc3cnc(Nc4ccc(C5CCN(CC(N)=O)CC5)cc4OC)nn23)c1 [Example 1283, 2-[4-(4-{7-[2-(Methanesulfonyl-methyl-amino)-5-methoxy-phenyl]-pyrrolo[2,1-f][1,2,4]triazin-2-ylamino}-3-methoxy-phenyl)-piperidin-1-yl]-acetamide] | 6.00 to 7.00 | < 5.00 |
| c1c[nH]c(-c2ccc3cnc(Nc4ccc(N5CCOCC5)cc4)nn23)c1 [Example 1291, (4-Morpholin-4-yl-phenyl)-[7-(1H-pyrrol-2-yl)-pyrrolo[2,1-f][1,2,4]triazin-2-yl]-amine] | 5.00 to 6.00 | > 7.00 |
| CC(=O)Nc1cccc(Nc2ncc3ccc(-c4ccc[nH]4)n3n2)c1 [Example 1292, N-{3-[7-(1H-Pyrrol-2-yl)-pyrrolo[2,1-f][1,2,4]triazin-2-ylamino]-phenyl}-acetamide] | 5.00 to 6.00 | > 7.00 |
| N#CCCn1cccc1-c1ccc2cnc(Nc3ccc(N4CCOCC4)cc3)nn12 [Example 1293, 3-{2-[2-(4-Morpholin-4-yl-phenylamino)-pyrrolo[2,1-f][1,2,4]triazin-7-yl]-pyrrol-1-yl}-propionitrile] | 6.00 to 7.00 | > 7.00 |
| CC(=O)Nc1cccc(Nc2ncc3ccc(-c4cccn4CCC#N)n3n2)c1 [Example 1294, N-(3-{7-[1-(2-Cyano-ethyl)-1H-pyrrol-2-yl]-pyrrolo[2,1-f][1,2,4]triazin-2-ylamino}-phenyl)-acetamide] | 5.00 to 6.00 | > 7.00 |
| N#CCCn1cccc1-c1ccc2cnc(Nc3cccc(N4CCCC4=O)c3)nn12 [Example 1296, 3-(2-{2-[3-(2-oxo-pyrrolidin-1-yl)-phenylamino]-pyrrolo[2,1-f][1,2,4]triazin-7-yl}-pyrrol-1-yl)-propionitrile] | 5.00 to 6.00 | > 7.00 |
| CC(C)(C)NS(=O)(=O)c1cccc(-c2ccc3cnc(Nc4ccc5nc(C(F)(F)F)[nH]c5c4)nn23)c1 [Example 1297, N-tert-Butyl-3-[2-(2-trifluoromethyl-3H-benzimidazol-5-ylamino)-pyrrolo[2,1-f][1,2,4]triazin-7-yl]-benzenesulfonamide] | < 5.00 | > 7.00 |
| CC(C)(C)NS(=O)(=O)c1cccc(-c2ccc3cnc(Nc4ccc5[nH]c(=O)[nH]c5c4)nn23)c1 [Example 1298, N-tert-Butyl-3-[2-(2-oxo-2,3-dihydro-1H-benzimidazol-5-ylamino)-pyrrolo[2,1-f][1,2,4]triazin-7-yl]-benzenesulfonamide] | 6.00 to 7.00 | > 7.00 |
| CC(C)(C)NS(=O)(=O)c1cccc(-c2ccc3cnc(Nc4ccc5nc[nH]c5c4)nn23)c1 [Example 1299, 3-[2-(3H-Benzimidazol-5-ylamino)-pyrrolo[2,1-f][1,2,4]triazin-7-yl]-N-tert-butyl-benzenesulfonamide] | 6.00 to 7.00 | > 7.00 |
| Cn1cnc2ccc(Nc3ncc4ccc(-c5cccc(S(=O)(=O)NC(C)(C)C)c5)n4n3)cc21 [Example 1300, N-tert-Butyl-3-[2-(3-methyl-3H-benzimidazol-5-ylamino)-pyrrolo[2,1-f][1,2,4]triazin-7-yl]-benzenesulfonamide] | 6.00 to 7.00 | > 7.00 |
| Cn1cnc2ccc(Nc3ncc4ccc(-c5ccc(S(C)(=O)=O)cc5)n4n3)cc21 [Example 1301, [7-(4-Methanesulfonyl-phenyl)-pyrrolo[2,1-f][1,2,4]triazin-2-yl]-(3-methyl-3H-benzimidazol-5-yl)-amine] | 6.00 to 7.00 | > 7.00 |
| CS(=O)(=O)c1ccc(-c2ccc3cnc(Nc4ccc5nc(C(F)(F)F)[nH]c5c4)nn23)cc1 [Example 1302, [7-(4-Methanesulfonyl-phenyl)-pyrrolo[2,1-f][1,2,4]triazin-2-yl]-(2-trifluoromethyl-3H-benzimidazol-5-yl)-amine] | < 5.00 | > 7.00 |
| CS(=O)(=O)c1ccc(-c2ccc3cnc(Nc4ccc5[nH]c(=O)[nH]c5c4)nn23)cc1 [Example 1303, 5-[7-(4-Methanesulfonyl-phenyl)-pyrrolo[2,1-f][1,2,4]triazin-2-ylamino]-1,3-dihydro-benzimidazol-2-one] | 5.00 to 6.00 | > 7.00 |
| CS(=O)(=O)c1ccc(-c2ccc3cnc(Nc4ccc5nc[nH]c5c4)nn23)cc1 [Example 1304, (3H-Benzimidazol-5-yl)-[7-(4-methanesulfonyl-phenyl)-pyrrolo[2,1-f][1,2,4]triazin-2-yl]-amine] | 6.00 to 7.00 | > 7.00 |
| COc1ccccc1-c1ccc2cnc(Nc3ccc4nc(C(F)(F)F)[nH]c4c3)nn12 [Example 1305] | 5.00 to 6.00 | > 7.00 |
| COc1ccccc1-c1ccc2cnc(Nc3ccc4nc[nH]c4c3)nn12 [Example 1306, (3H-Benzimidazol-5-yl)-[7-(2-methoxy-phenyl)-pyrrolo[2,1-f][1,2,4]triazin-2-yl]-amine] | 6.00 to 7.00 | > 7.00 |
| COc1ccc(-c2ccc3cnc(Nc4ccc5ncn(C)c5c4)nn23)cn1 [Example 1307, [7-(6-Methoxy-pyridin-3-yl)-pyrrolo[2,1-f][1,2,4]triazin-2-yl]-(3-methyl-3H-benzimidazol-5-yl)-amine] | 5.00 to 6.00 | > 7.00 |
| COc1ccc(-c2ccc3cnc(Nc4ccc5nc(C(F)(F)F)[nH]c5c4)nn23)cn1 [Example 1308, [7-(6-Methoxy-pyridin-3-yl)-pyrrolo[2,1-f][1,2,4]triazin-2-yl]-(2-trifluoromethyl-3H-benzimidazol-5-yl)-amine] | < 5.00 | > 7.00 |
| COc1ccc(-c2ccc3cnc(Nc4ccc5[nH]c(=O)[nH]c5c4)nn23)cn1 [Example 1309, 5-[7-(6-Methoxy-pyridin-3-yl)-pyrrolo[2,1-f][1,2,4]triazin-2-ylamino]-1,3-dihydro-benzimidazol-2-one] | 5.00 to 6.00 | > 7.00 |
| Cn1cnc2ccc(Nc3ncc4ccc(-c5ccccc5NS(C)(=O)=O)n4n3)cc21 [Example 1310, N-{2-[2-(3-Methyl-3H-benzoimidazol-5-ylamino)-pyrrolo[2,1-f][1,2,4]triazin-7-yl]-phenyl}-methanesulfonamide] | 6.00 to 7.00 | > 7.00 |
| CCS(=O)(=O)c1cccc(-c2ccc3cnc(Nc4ccc5nc[nH]c5c4)nn23)c1 [Example 1311, (3H-Benzimidazol-5-yl)-[7-(3-ethanesulfonyl-phenyl)-pyrrolo[2,1-f][1,2,4]triazin-2-yl]-amine] | 5.00 to 6.00 | > 7.00 |
| CCS(=O)(=O)c1cccc(-c2ccc3cnc(Nc4ccc5ncn(C)c5c4)nn23)c1 [Example 1312, [7-(3-Ethanesulfonyl-phenyl)-pyrrolo[2,1-f][1,2,4]triazin-2-yl]-(3-methyl-3H-benzimidazol-5-yl)-amine] | 5.00 to 6.00 | > 7.00 |

Source: US8471005B2 (Cephalon, Inc., priority 2008, dated 2013)
